Test results: patent US8133847B2, “Pyrido[2,3-B]pyrazine derivatives useful as herbicidal compounds” (Syngenta Limited, priority 2006, dated 2012)

Key:
Assay type in all cases: in vivo
[1] = tested on: Amaranthus retroflexus (AMARE); assay: Example B2 herbicidal action, post-emergence, pots in glasshouse; conditions: Application post-emergence, evaluated after 13 days (100=total damage to plant; 0=no damage to plant)
Experimental: (§1) Seeds of a variety of test species were sown in standard soil in pots. After 8 days cultivation (post-emergence) under controlled conditions in a glasshouse (at 24/16° C., day/night; 14 hours light; 65% humidity), the plants were sprayed with an aqueous spray solution derived from the formulation of the technical active ingredient in acetone/water (50:50) solution containing 0.5% Tween 20 (polyoxyethylene sorbitan monolaurate, CAS RN 9005-64-5). The test plants were then grown in a glasshouse under controlled conditions in a glasshouse (at 24/16° C., day/night; 14 hours light; 65% humidity) and watered twice daily. After 13 days, the test was evaluated (100=total damage to plant; 0=no damage to plant).

[2] = tested on: Ipomea hederaceae (IPOHE); assay: as above; conditions: Application post-emergence, evaluated after 13 days (100=total damage to plant; 0=no damage to plant)
Experimental: as §1

Setaria faberi (SETFA) = assay: as above; conditions: Application post-emergence, evaluated after 13 days (100=total damage to plant; 0=no damage to plant)
Experimental: as §1

[3] = tested on: Echinochloa crusgalli (ECHCG); assay: as above; conditions: Application post-emergence, evaluated after 13 days (100=total damage to plant; 0=no damage to plant)
Experimental: as §1

Solanum nigrum (SOLNI) [4] = assay: as above; conditions: Application post-emergence, evaluated after 13 days
Experimental: as §1

[5] = tested on: Amaranthus retroflexus (AMARE); assay: Example B1 herbicidal action, post-emergence, 96-cell seed trays, climatic chamber; conditions: Application post-emergence, 1000 mg/l spray equivalent to 1000 g/ha, evaluated after 9 days
How it was run: (§2)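 Plants at 8–9 days post-sowing (23/17 °C, 13 h light, 50–60% humidity) sprayed post-emergence with 1000 mg/l active ingredient in 10% DMSO, equivalent to 1000 g/ha. Grown on at 24/19 °C, watered twice daily; damage scored after 9 days (0 = none, 100 = total).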

Stellaria media (STEME) = assay: as above; conditions: Application post-emergence, 1000 mg/l spray equivalent to 1000 g/ha, evaluated after 9 days (100=total damage to plant, 0=no damage to plant)
How it was run: as §2

Solanum nigrum (SOLNI) [6] = assay: as above; conditions: Application post-emergence, 1000 mg/l spray equivalent to 1000 g/ha, evaluated after 9 days (100=total damage to plant, 0=no damage to plant)
How it was run: as §2

[7] = tested on: Nasturtium officinale (NAAOF); assay: as above; design: scale not given here; conditions: Application post-emergence, 1000 mg/l spray equivalent to 1000 g/ha, evaluated after 9 days (100=total damage to plant, 0=no damage to plant)
How it was run: as §2

Compound	damage to plant, Amaranthus retroflexus (AMARE) [1]	damage to plant, Ipomea hederaceae (IPOHE) [2]	damage to plant, Setaria faberi (SETFA) (Setaria faberi (SETFA))	damage to plant, Echinochloa crusgalli (ECHCG) [3]	damage to plant, Solanum nigrum (SOLNI) (Solanum nigrum (SOLNI) [4])	damage to plant, Amaranthus retroflexus (AMARE) [5]	damage to plant, Stellaria media (STEME) (Stellaria media (STEME))	damage to plant, Solanum nigrum (SOLNI) (Solanum nigrum (SOLNI) [6])	damage to plant, Nasturtium officinale (NAAOF) [7]
O=c1[nH]c2nccnc2c(O)c1-c1ccccc1Br [Compound A24]	10	6	6	4	9	–	–	–	–
O=c1[nH]c2nccnc2c(O)c1-c1c(Cl)cc(OC(F)(F)F)cc1Cl [Compound A36]	7	0	8	10	8	–	–	–	–
Cc1ccc(C)c(-c2c(O)c3nccnc3[nH]c2=O)c1 [Compound A37]	4	1	7	7	6	–	–	–	–
O=c1[nH]c2nccnc2c(O)c1-c1cc(F)ccc1Cl [Compound A38]	10	0	9	8	9	–	–	–	–
O=c1[nH]c2nccnc2c(O)c1-c1cc(F)c(Cl)cc1Cl [Compound A39]	8	0	7	8	6	–	–	–	–
O=c1[nH]c2nccnc2c(O)c1-c1c(F)ccc(Br)c1Cl [Compound A40]	9	0	9	5	8	–	–	–	–
CC(C)(C)C(=O)Oc1c(-c2c(Cl)cc(OC(F)(F)F)cc2Cl)c(=O)[nH]c2nccnc12 [Compound B42]	0	0	8	1	5	–	–	–	–
CC(C)(C)C(=O)Oc1c(-c2ccc(C(F)(F)F)cc2[N+](=O)[O-])c(=O)[nH]c2nccnc12 [Compound B44]	7	–	0	3	3	–	–	–	–
CC(C)C(=O)Oc1c(-c2cc(F)ccc2Cl)c(=O)[nH]c2nccnc12 [Compound B45]	4	0	8	8	9	–	–	–	–
CC(C)(C)C(=O)Oc1c(-c2cc(F)ccc2Cl)c(=O)[nH]c2nccnc12 [Compound B46]	10	9	6	4	10	–	–	–	–
CC(C)C(=O)Oc1c(-c2cc(F)c(Cl)cc2Cl)c(=O)[nH]c2nccnc12 [Compound B47]	2	1	4	3	3	–	–	–	–
CC(C)(C)C(=O)Oc1c(-c2c(F)ccc(Br)c2Cl)c(=O)[nH]c2nccnc12 [Compound B49]	10	8	7	3	9	–	–	–	–
CC(C)C(=O)Oc1c(-c2c(F)ccc(Br)c2Cl)c(=O)[nH]c2nccnc12 [Compound B50]	10	8	8	8	9	–	–	–	–
CC(C)(C)C(=O)Oc1c(-c2ccccc2Br)c(=O)[nH]c2nccnc12 [Compound B51]	3	0	6	3	7	–	–	–	–
CC(C)(C)C(=O)Oc1c(-c2ccccc2OC(F)F)c(=O)[nH]c2nccnc12 [Compound B59]	0	3	4	0	2	–	–	–	–
CCn1c(=O)c(-c2c(Cl)cc(C(F)(F)F)cc2Cl)c(OC(=O)C(C)(C)C)c2nccnc21 [Compound C129]	10	9	6	4	10	–	–	–	–
CC(C)(C)C(=O)Oc1c(-c2c(F)ccc(F)c2Cl)c(=O)n(CC2CCC2)c2nccnc12 [Compound C131]	0	0	0	0	2	–	–	–	–
Cc1ccc(C)c(-c2c(OC(=O)C(C)C)c3nccnc3n(C)c2=O)c1 [Compound C133]	9	3	4	6	9	–	–	–	–
Cc1ccc(C)c(-c2c(OC(=O)C(C)(C)C)c3nccnc3n(C)c2=O)c1 [Compound C134]	9	6	2	0	10	–	–	–	–
Cn1c(=O)c(-c2ccccc2I)c(OC(=O)C(C)(C)C)c2nccnc21 [Compound C136]	9	–	8	9	10	–	–	–	–
CCn1c(=O)c(-c2ccccc2Cl)c(OC(C)=O)c2nccnc21 [Compound C185]	–	–	–	–	–	4	10	4	8
CCn1c(=O)c(-c2c(F)ccc(F)c2Cl)c(O)c2nccnc21 [Compound D2]	–	–	–	–	–	6	8	8	8
Cn1c(=O)c(-c2ccc(Cl)cc2Cl)c(O)c2nccnc21 [Compound D3]	–	–	–	–	–	0	8	8	8
Cn1c(=O)c(-c2c(F)ccc(F)c2Cl)c(O)c2c1ncc[n+]2[O-] [Compound D6, 7-(2-chloro-3,6-difluorophenyl)-8-hydroxy-5-methyl-1-oxy-5H-pyrido[2,3-b]pyrazin-6-one]	–	–	–	–	–	5	6	3	7
